Measurements from patent publication US10501481B2, “Heterocyclic compounds and their use in preventing or treating bacterial infections” (priority 2015, dated 2019).

Key:
[1] = tested on: K. pneumoniae UFR24 (TEM-1, SHV-2, SHV-11, OXA-1, OXA-48, OXA-47); assay: MIC broth microdilution, alone and synergy with ceftazidime; conditions: strain UFR24; compound fixed at 4 μg/mL
E. cloacae P99 (AmpC) = assay: as above; conditions: for MIC: Enterobacter cloacae, read-out: MIC compounds of the invention alone; for MIC of CAZ in combination with compound at 4 μg/mL: strain P99, compound fixed at 4 μg/mL
[2] = tested on: E. coli 131119 (TEM-1, OXA-48); assay: as above; conditions: for MIC: Escherichia coli, read-out: MIC compounds of the invention alone; for MIC of CAZ in combination with compound at 4 μg/mL: strain 131119, compound fixed at 4 μg/mL
OXA-1 = target: T1, OXA-1 (Escherichia coli, UniProt P13661); assay: β-lactamase inhibitory activity, nitrocefin hydrolysis; format: biochemical
T1 construct: made in house; host or cells: E. coli
T1 sequence (P13661 26-276): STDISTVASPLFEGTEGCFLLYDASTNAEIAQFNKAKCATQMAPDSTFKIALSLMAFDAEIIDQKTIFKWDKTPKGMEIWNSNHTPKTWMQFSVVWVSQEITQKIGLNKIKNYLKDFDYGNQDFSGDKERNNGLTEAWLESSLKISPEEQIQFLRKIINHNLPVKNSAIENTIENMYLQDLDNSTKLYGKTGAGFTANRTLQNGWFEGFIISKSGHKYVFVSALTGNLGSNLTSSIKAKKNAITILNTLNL
Procedure: (§1) Enzyme activity was monitored by spectrophotometric measurement of nitrocefin (NCF-TOKU-E, N005) hydrolysis at 485 nm, at room temperature and in assay buffer A: 100 mM Phosphate pH7, 2% glycerol and 0.1 mg/mL Bovine serum albumin (Sigma, B4287). […] To a transparent polystyrene plate (Corning, 3628) were added in each well 5 μL DMSO or inhibitor dilutions in DMSO and 80 μL enzyme in buffer A. Plates were immediately read at 485 nm in a microplate spectrophotometer (BioTek, PowerWave HT) to enable background subtraction. After 30 min of pre-incubation at room temperature, 15 μL of NCF (200 μM final) were finally added in each well. Final enzyme concentrations were 0.1 nM (TEM-1), 0.075 nM (SHV-1), 0.4 nM (CTX-M-15), 1 nM (KPC-2), 0.2 nM (P99 AmpC), 0.2 nM (CMY-37), 0.4 nM (AmpC P. aeruginosa), 0.2 nM (OXA-1), 1.2 nM (OXA-11), 0.4 nM (OXA-15) and 0.3 nM (OXA-48). After 20 min incubation at room temperature, plates were once again read at 485 nm. Enzyme activity was obtained by subtracting the final signal by the background, and was converted to enzyme inhibition using non inhibited wells. IC50 curves were fitted to a classical Langmuir equilibrium model with Hill slope using XLFIT (IDBS).

[3] = tested on: E. coli UFR18 (CTX-M-15, OXA-204); assay: MIC broth microdilution, alone and synergy with ceftazidime; conditions: for MIC: Escherichia coli, read-out: MIC compounds of the invention alone; for MIC of CAZ in combination with compound at 4 μg/mL: strain UFR18, compound fixed at 4 μg/mL
[4] = tested on: E. cloacae 260508 (TEM-1, CTX-M-15); assay: as above; conditions: for MIC: Enterobacter cloacae, read-out: MIC compounds of the invention alone; for MIC of CAZ in combination with compound at 4 μg/mL: strain 260508, compound fixed at 4 μg/mL
[5] = tested on: K. pneumoniae UFR77 (CMY-2); assay: as above; conditions: for MIC: Klebsiella pneumoniae, read-out: MIC compounds of the invention alone; for MIC of CAZ in combination with compound at 4 μg/mL: strain UFR77, compound fixed at 4 μg/mL
[6] = tested on: K. pneumoniae 6299 (TEM-1, SHV-11, OXA-163); assay: as above; conditions: for MIC: Klebsiella pneumoniae, read-out: MIC compounds of the invention alone; for MIC of CAZ in combination with compound at 4 μg/mL: strain 6299, compound fixed at 4 μg/mL
[7] = tested on: K. pneumoniae BAA-1898 (TEM-1, SHV-11, SHV-12, KPC-2); assay: microbe, parasite or virus in culture; format: cell-based; conditions: for MIC: Klebsiella pneumoniae, BAA1898, read-out: MIC compounds of the invention alone; for MIC of CAZ in combination with compound at 4 μg/mL: strain BAA-1898, compound fixed at 4 μg/mL
[8] = tested on: E. coli UFR52 (TEM-1, SHV-12, IMP-8); assay: MIC broth microdilution, alone and synergy with ceftazidime; conditions: for MIC: Escherichia coli, read-out: MIC compounds of the invention alone; for MIC of CAZ in combination with compound at 4 μg/mL: strain UFR52, compound fixed at 4 μg/mL
OXA-48 = target: T2, OXA-48 (Klebsiella pneumoniae, UniProt Q6XEC0); assay: β-lactamase inhibitory activity, nitrocefin hydrolysis; format: biochemical
T2 construct: made in house; host or cells: E. coli
T2 sequence (Q6XEC0 23-265 limits assumed): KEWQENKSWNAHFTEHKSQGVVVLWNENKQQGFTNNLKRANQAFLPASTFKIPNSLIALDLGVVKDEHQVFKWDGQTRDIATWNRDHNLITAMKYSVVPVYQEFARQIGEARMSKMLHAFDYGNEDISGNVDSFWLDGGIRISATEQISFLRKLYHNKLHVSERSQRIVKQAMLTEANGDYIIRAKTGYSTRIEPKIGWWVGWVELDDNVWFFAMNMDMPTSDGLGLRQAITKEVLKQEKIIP
Procedure: as §1

[9] = tested on: E. cloacae UFR85 (TEM-1, CTX-M-15, derepressed AmpC); assay: MIC broth microdilution, alone and synergy with ceftazidime; conditions: for MIC of CAZ in combination with compound at 4 μg/mL: strain UFR85, compound fixed at 4 μg/mL
[10] = tested on: E. coli UFR74 (SHV-1, DHA-1); assay: as above; conditions: for MIC of CAZ in combination with compound at 4 μg/mL: strain UFR74, compound fixed at 4 μg/mL
[11] = tested on: K. pneumoniae 200047 (TEM-1, SHV-32, CTX-M-15, OXA-1); assay: as above; conditions: for MIC: Klebsiella pneumoniae, read-out: MIC compounds of the invention alone; for MIC of CAZ in combination with compound at 4 μg/mL: strain 200047, compound fixed at 4 μg/mL
[12] = tested on: P. aeruginosa CIP107051 (TEM-24); assay: as above; conditions: for MIC: Pseudomonas aeruginosa, CIP107051, read-out: MIC compounds of the invention alone; for MIC of CAZ in combination with compound at 4 μg/mL: strain CIP107051, compound fixed at 4 μg/mL
[13] = tested on: E. cloacae UFR70 (TEM-1, CTX-M-15, CMY-2, OXA-1, Porin loss); assay: as above; conditions: for MIC: Enterobacter cloacae, read-out: MIC compounds of the invention alone; for MIC of CAZ in combination with compound at 4 μg/mL: strain UFR70, compound fixed at 4 μg/mL
TEM-1 = target: T3, TEM-1 (Escherichia coli, UniProt P62593); assay: β-lactamase inhibitory activity, nitrocefin hydrolysis; format: biochemical; conditions: class (A); 30 min pre-incubation; nitrocefin 200 μM
T3 construct: made in house; host or cells: E. coli
T3 sequence (P62593 24-286 limits assumed): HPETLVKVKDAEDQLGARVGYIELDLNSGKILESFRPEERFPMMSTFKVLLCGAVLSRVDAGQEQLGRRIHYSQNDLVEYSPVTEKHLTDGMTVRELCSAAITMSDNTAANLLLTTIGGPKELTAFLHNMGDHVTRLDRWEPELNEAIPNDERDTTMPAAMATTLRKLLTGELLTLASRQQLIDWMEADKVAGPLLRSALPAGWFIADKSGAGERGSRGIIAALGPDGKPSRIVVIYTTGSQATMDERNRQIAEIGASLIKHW
Procedure: as §1

KPC-2 = target: T4, KPC-2 (Klebsiella pneumoniae, UniProt Q9F663); assay: as above; format: biochemical
T4 construct: made in house; host or cells: E. coli
T4 sequence (Q9F663 25-293 limits assumed): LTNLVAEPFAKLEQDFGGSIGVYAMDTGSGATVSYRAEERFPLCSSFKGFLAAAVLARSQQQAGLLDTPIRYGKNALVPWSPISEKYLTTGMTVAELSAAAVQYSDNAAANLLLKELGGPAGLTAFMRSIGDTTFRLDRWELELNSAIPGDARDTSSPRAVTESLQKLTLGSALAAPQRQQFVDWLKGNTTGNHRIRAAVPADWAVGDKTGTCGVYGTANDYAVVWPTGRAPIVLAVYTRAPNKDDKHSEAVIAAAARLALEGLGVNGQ
Procedure: as §1

E. coli RGN238 (OXA-1) = assay: MIC broth microdilution, alone and synergy with ceftazidime; conditions: for MIC: Escherichia coli, read-out: MIC compounds of the invention alone; for MIC of CAZ in combination with compound at 4 μg/mL: strain RGN238, compound fixed at 4 μg/mL
SHV-1 = target: T5, SHV-1 (Klebsiella pneumoniae, UniProt P0AD64); assay: β-lactamase inhibitory activity, nitrocefin hydrolysis; format: biochemical
T5 construct: made in house; host or cells: E. coli
T5 sequence (P0AD64 22-286): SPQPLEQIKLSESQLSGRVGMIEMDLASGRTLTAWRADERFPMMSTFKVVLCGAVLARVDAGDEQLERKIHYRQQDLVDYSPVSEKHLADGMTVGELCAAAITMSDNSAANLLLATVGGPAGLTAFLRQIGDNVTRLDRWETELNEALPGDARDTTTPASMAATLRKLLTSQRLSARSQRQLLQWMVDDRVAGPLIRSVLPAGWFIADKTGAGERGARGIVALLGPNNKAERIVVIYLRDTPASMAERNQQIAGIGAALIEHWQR
Procedure: as §1

CTX-M-15 = target: T6, CTX-M-15 (Escherichia coli, UniProt Q9EXV5); assay: as above; format: biochemical
T6 construct: made in house; host or cells: E. coli
T6 sequence (Q9EXV5 entry or part of it): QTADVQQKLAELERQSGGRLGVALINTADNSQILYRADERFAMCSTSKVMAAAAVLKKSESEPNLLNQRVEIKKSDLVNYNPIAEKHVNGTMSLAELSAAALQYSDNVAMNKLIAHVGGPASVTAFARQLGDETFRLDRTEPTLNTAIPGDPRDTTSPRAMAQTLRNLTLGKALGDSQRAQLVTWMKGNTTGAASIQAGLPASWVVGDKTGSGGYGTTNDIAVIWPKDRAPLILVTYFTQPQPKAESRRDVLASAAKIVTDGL
Procedure: as §1

[14] = tested on: E. cloacae UFR38 (CTX-M-15, NDM-1); assay: MIC broth microdilution, alone and synergy with ceftazidime; conditions: for MIC: Enterobacter cloacae, read-out: MIC compounds of the invention alone; for MIC of CAZ in combination with compound at 4 μg/mL: strain UFR38, compound fixed at 4 μg/mL
AmpC P. aeruginosa = AmpC P. aeruginosa (Pseudomonas aeruginosa, UniProt P24735); assay: biochemical
Chain of AmpC P. aeruginosa (P24735 27-397): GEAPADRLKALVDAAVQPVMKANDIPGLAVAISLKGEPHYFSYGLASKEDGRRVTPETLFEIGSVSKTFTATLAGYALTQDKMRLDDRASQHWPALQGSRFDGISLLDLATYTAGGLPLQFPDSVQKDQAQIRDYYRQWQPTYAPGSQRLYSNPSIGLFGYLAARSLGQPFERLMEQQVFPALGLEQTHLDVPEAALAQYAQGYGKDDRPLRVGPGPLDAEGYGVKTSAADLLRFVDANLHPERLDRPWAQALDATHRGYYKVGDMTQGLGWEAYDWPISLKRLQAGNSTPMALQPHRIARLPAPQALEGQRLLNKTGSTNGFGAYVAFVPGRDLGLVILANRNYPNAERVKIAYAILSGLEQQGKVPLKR
Procedure: Enzyme activity was monitored by spectrophotometric measurement of nitrocefin (NCF-TOKU-E, N005) hydrolysis at 485 nm, at room temperature and in assay buffer A: 100 mM Phosphate pH7, 2% glycerol and 0.1 mg/mL Bovine serum albumin (Sigma, B4287). Enzymes were cloned in E. coli expression vector, expressed and purified in house using classical procedures. To a transparent polystyrene plate (Corning, 3628) were added in each well 5 μL DMSO or inhibitor dilutions in DMSO and 80 μL enzyme in buffer A. Plates were immediately read at 485 nm in a microplate spectrophotometer (BioTek, PowerWave HT) to enable background subtraction. After 30 min of pre-incubation at room temperature, 15 μL of NCF (200 μM final) were finally added in each well. Final enzyme concentrations were 0.1 nM (TEM-1), 0.075 nM (SHV-1), 0.4 nM (CTX-M-15), 1 nM (KPC-2), 0.2 nM (P99 AmpC), 0.2 nM (CMY-37), 0.4 nM (AmpC P. aeruginosa), 0.2 nM (OXA-1), 1.2 nM (OXA-11), 0.4 nM (OXA-15) and 0.3 nM (OXA-48). After 20 min incubation at room temperature, plates were once again read at 485 nm. Enzyme activity was obtained by subtracting the final signal by the background, and was converted to enzyme inhibition using non inhibited wells. IC50 curves were fitted to a classical Langmuir equilibrium model with Hill slope using XLFIT (IDBS).

SMILES	MIC of CAZ in combination with compound at 4 μg/mL [1] [µg/mL]	MIC (E. cloacae P99 (AmpC)) [µg/mL]	MIC of CAZ in combination with compound at 4 μg/mL (E. cloacae P99 (AmpC)) [µg/mL]	MIC [2] [µg/mL]	MIC of CAZ in combination with compound at 4 μg/mL [2] [µg/mL]	IC50 (OXA-1) [nM]	MIC [3] [µg/mL]	MIC of CAZ in combination with compound at 4 μg/mL [3] [µg/mL]	MIC [4] [µg/mL]	MIC of CAZ in combination with compound at 4 μg/mL [4] [µg/mL]	MIC [5] [µg/mL]	MIC of CAZ in combination with compound at 4 μg/mL [5] [µg/mL]	MIC [6] [µg/mL]	MIC of CAZ in combination with compound at 4 μg/mL [6] [µg/mL]	MIC [7] [µg/mL]	MIC of CAZ in combination with compound at 4 μg/mL [7] [µg/mL]	MIC [8] [µg/mL]	MIC of CAZ in combination with compound at 4 μg/mL [8] [µg/mL]	IC50 (OXA-48) [nM]	MIC of CAZ in combination with compound at 4 μg/mL [9] [µg/mL]	other results
Cn1c2c(sc1=O)C1CN(C2)C(=O)N1OS(=O)(=O)[O-].[Na+] (centres unmarked) [Example 1, Sodium (5-methyl-4,9-dioxo-3-thia-5,8,10-triaza-tricyclo[6.2.1.0^2.6]undec-2(6)-en-10-yl) sulfate]	4	8	0.5	1	<0.25	63	4	<0.25	4	<0.25	8	≤0.25	16	4	16	64	8	0.5	0.89	<0.25	MIC of CAZ in combination with compound at 4 μg/mL [10]: <0.25 µg/mL; MIC [11]: 4 µg/mL; MIC of CAZ in combination with compound at 4 μg/mL [11]: <0.25 µg/mL; MIC [12]: > 128 µg/mL; MIC of CAZ in combination with compound at 4 μg/mL [12]: 4 µg/mL; MIC [13]: 4 µg/mL; MIC of CAZ in combination with compound at 4 μg/mL [13]: <0.25 µg/mL; IC50 (TEM-1): 3.3 nM; IC50 (KPC-2): 3.3 nM; MIC (E. coli RGN238 (OXA-1)): 2 µg/mL; MIC of CAZ in combination with compound at 4 μg/mL (E. coli RGN238 (OXA-1)): <0.25 µg/mL; IC50 (SHV-1): 12 nM; IC50 (CTX-M-15): 0.69 nM; MIC [14]: 8 µg/mL; MIC of CAZ in combination with compound at 4 μg/mL [14]: >128 µg/mL; IC50 (AmpC P. aeruginosa): 190 nM
NCCn1c2c(sc1=O)C1CN(C2)C(=O)N1OS(=O)(=O)[O-].[Na+] (centres unmarked) [Example 4, Sodium and 2,2,2-trifluoroacetate [5-(2-azaniumethyl)-4,9-dioxo-3-thia-5,8,10-triaza-tricyclo[6.2.1.0^2.6]undec-2(6)-en-10-yl] sulfate]	≤0.25	0.5	<0.25	2	<0.25	460	0.5	<0.25	8	<0.25	16	≤0.25	32	≤0.125	16	≤0.125	2	<0.25	4.1	<0.25	MIC ([9]; Enterobacter cloacae, read-out: MIC compounds of the invention alone): 2 µg/mL; MIC ([10]; Escherichia coli, read-out: MIC compounds of the invention alone): 16 µg/mL; MIC of CAZ in combination with compound at 4 μg/mL [10]: ≤0.25 µg/mL; MIC [11]: 8 µg/mL; MIC of CAZ in combination with compound at 4 μg/mL [11]: <0.25 µg/mL; MIC [12]: 16 µg/mL; MIC of CAZ in combination with compound at 4 μg/mL [12]: 4 µg/mL; MIC [13]: 4 µg/mL; MIC of CAZ in combination with compound at 4 μg/mL [13]: <0.25 µg/mL; IC50 (TEM-1): 4.6 nM; IC50 (KPC-2): 7.4 nM; MIC (E. coli RGN238 (OXA-1)): 8 µg/mL; MIC of CAZ in combination with compound at 4 μg/mL (E. coli RGN238 (OXA-1)): <0.25 µg/mL; IC50 (SHV-1): 21 nM; IC50 (CTX-M-15): 1.3 nM; MIC [14]: 0.5 µg/mL; MIC of CAZ in combination with compound at 4 μg/mL [14]: <0.25 µg/mL; IC50 (AmpC P. aeruginosa): 1200 nM
